Reference: ChEMBL document CHEMBL5390258, “Recent Progress and Prospects of Small Molecules for NLRP3 Inflammasome Inhibition” (J Med Chem, 2023)
pEC50, pIC50: −log10 of the molar value.

Assays:
[1] = target: T1, NACHT, LRR and PYD domains-containing protein 3 (Mus musculus, UniProt Q8R4B8); assay: Inhibition of NLRP3 in mouse BMDM cells assessed as reduction in IL-1beta production measured after 3 hrs; type: cell-based
THP-1 [2] = assay: Induction of pyroptosis in human THP-1 cells by AlphaLisa assay; type: functional, cell-based
[3] = target: T2, NACHT, LRR and PYD domains-containing protein 3 (Homo sapiens, UniProt Q96P20); assay: Inhibition of NLRP3 in human THP-1 cells assessed as reduction in IL-1beta production measured after 3 hrs; type: cell-based
[4] = target: T2, NACHT, LRR and PYD domains-containing protein 3; assay: Inhibition of NLRP3 in human THP-1 cells assessed as reduction in IL-1beta production by ELISA; type: cell-based
[5] = target: T2, NACHT, LRR and PYD domains-containing protein 3; assay: Inhibition of NLRP3 in human THP-1 cells assessed as reduction in IL-1beta production; type: cell-based
[6] = target: T1, NACHT, LRR and PYD domains-containing protein 3; assay: Inhibition of NLRP3 in LPS induced mouse BMDM cells assessed as reduction in IL-1beta production measured after 30 mins by ELISA assay; type: cell-based
THP-1 [7] = assay: Induction of pyroptosis in human THP-1 cells; type: functional, cell-based
[8] = target: T2, NACHT, LRR and PYD domains-containing protein 3; assay: Inhibition of NLRP3 in human THP-1 cells assessed as reduction in IL-1beta production measured after 3 hrs by AlphaLISA assay; type: cell-based
[9] = target: T2, NACHT, LRR and PYD domains-containing protein 3; assay: Inhibition of NLRP3 in human PBMC cells assessed as reduction in IL-1beta production preincubated for 30 mins followed by LPS addition measured after 6 hrs; type: cell-based
[10] = target: T2, NACHT, LRR and PYD domains-containing protein 3; assay: Inhibition of NLRP3 in human PBMC cells assessed as reduction in Il-1beta production at 0.5 uM relative to control; type: cell-based
[11] = target: T2, NACHT, LRR and PYD domains-containing protein 3; assay: Inhibition of NLRP3 in human MDM cells assessed as reduction in IL-1beta production measured after 3 hrs by AlphaLISA assay; type: cell-based
[12] = Inhibition of NLRP3 in LPS induced PBMC (unknown origin) assessed as reduction in IL-1beta production preincubated 0.5 hrs followed by nigericin addition measured after 1 hrs by ELISA assay; type: cell-based
[13] = target: T2, NACHT, LRR and PYD domains-containing protein 3; assay: Inhibition of NLRP3 in LPS induced human PBMC cells assessed as reduction in IL-1beta preincubated for 30 mins followed by ATP addition measured after 1 hrs HTRF assay; type: cell-based
[14] = target: T2, NACHT, LRR and PYD domains-containing protein 3; assay: Inhibition of NLRP3 in LPS induced human THP-1 cells assessed as reduction in IL-1beta production preincubated for 3 hrs followed by nigericin addition measured after 1 hrs by resazurin staining based assay; type: cell-based
[15] = target: T2, NACHT, LRR and PYD domains-containing protein 3; assay: Inhibition of NLRP3 in human THP-1 cells assessed as reduction in IL-1beta production pre incubated for 3 hrs followed by nigericin addition measured after 1 hrs by resazurin staining based assay; type: cell-based
[16] = Oral bioavailability in Sprague-Dawley rat measured upto 24 hrs by LC-MS/MS analysis; type: ADME, organism-based; conditions: in vivo
[17] = target: T2, NACHT, LRR and PYD domains-containing protein 3; assay: Inhibition of NLRP3 in human PBMC cells assessed as reduction in TNF alpha level preincubated for 30 mins followed by LPS addition measured after 6 hrs; type: cell-based
[18] = target: T1, NACHT, LRR and PYD domains-containing protein 3; assay: Inhibition of NLRP3 in mouse BMDM assessed as reduction in IL-1beta production preincubated for 3 hrs followed by ATP measured after 45 mins by ELISA assay; type: cell-based
[19] = target: T2, NACHT, LRR and PYD domains-containing protein 3; assay: Inhibition of NLRP3 in LPS induced human Whole blood cell assessed as reduction in IL-1beta production preincubated for 3 hrs followed by nigericin measured after 1 hrs by resazurin staining based assay; type: tissue-based

T2 sequence (Q96P20 whole entry, the tested form may be a part): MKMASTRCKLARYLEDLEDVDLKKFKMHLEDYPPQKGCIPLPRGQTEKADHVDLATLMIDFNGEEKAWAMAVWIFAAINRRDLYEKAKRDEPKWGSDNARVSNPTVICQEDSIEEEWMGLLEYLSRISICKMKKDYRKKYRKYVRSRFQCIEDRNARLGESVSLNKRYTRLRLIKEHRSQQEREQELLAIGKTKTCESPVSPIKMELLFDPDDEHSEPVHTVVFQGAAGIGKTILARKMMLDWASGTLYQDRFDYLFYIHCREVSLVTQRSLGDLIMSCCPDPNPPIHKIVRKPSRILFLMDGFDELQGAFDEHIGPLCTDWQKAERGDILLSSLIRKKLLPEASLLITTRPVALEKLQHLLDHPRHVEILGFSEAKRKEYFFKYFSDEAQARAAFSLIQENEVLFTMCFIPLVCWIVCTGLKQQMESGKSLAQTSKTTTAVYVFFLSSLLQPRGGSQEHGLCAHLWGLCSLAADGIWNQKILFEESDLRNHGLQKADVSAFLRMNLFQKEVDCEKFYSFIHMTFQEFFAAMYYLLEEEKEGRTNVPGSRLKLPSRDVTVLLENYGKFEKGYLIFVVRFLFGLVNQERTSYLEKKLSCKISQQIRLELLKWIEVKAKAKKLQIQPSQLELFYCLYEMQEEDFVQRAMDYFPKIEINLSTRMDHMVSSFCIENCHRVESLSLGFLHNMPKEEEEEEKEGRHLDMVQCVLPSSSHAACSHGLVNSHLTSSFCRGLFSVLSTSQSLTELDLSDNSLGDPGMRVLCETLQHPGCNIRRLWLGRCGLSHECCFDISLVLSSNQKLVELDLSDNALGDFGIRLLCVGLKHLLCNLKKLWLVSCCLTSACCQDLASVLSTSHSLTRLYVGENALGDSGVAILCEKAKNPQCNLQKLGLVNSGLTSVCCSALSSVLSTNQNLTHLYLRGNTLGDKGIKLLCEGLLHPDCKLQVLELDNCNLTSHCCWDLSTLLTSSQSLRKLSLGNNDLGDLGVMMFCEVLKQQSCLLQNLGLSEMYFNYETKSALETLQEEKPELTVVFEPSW
T1 sequence (Q8R4B8 whole entry, the tested form may be a part): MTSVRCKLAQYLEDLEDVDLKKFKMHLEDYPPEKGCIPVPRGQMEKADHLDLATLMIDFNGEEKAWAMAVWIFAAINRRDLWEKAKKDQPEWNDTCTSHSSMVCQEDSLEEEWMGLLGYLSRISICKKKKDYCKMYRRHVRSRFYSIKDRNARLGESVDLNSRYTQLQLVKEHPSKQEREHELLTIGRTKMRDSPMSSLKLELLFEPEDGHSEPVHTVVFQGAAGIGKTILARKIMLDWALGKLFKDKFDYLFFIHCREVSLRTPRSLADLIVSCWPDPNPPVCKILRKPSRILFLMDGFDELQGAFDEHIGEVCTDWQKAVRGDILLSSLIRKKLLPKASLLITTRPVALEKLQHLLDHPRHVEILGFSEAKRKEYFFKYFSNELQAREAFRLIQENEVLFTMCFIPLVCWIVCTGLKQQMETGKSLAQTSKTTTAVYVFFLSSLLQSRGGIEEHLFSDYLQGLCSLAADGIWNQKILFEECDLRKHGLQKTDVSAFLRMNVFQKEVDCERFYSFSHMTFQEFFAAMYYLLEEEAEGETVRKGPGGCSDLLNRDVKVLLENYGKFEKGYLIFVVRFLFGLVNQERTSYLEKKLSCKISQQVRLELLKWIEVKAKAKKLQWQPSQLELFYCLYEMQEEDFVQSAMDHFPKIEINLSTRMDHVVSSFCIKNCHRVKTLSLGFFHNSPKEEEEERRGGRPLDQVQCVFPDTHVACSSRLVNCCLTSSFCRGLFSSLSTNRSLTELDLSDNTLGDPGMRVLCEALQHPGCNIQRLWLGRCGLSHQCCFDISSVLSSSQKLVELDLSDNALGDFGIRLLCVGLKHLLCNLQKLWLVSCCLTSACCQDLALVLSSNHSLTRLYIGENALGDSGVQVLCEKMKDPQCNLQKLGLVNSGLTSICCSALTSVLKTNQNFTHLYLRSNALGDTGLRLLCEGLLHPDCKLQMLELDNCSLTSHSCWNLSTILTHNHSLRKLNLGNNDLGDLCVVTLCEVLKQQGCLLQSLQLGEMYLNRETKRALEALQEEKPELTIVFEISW

Molecule CC1(O)CCCc2oc(S(=O)(=O)NC(=O)Nc3c4c(c(Br)c5c3CCC5)CCC4)cc21 (centres undefined) has a pIC50 [1] of over 7.00.

For CCN1CCC[C@@H](Nc2nc3nc(-c4c(C)cc(Cl)cc4O)ccc3o2)C1, the pIC50 (THP-1 [2]) was 9.40.

For CC(C)c1cc(NC(=O)NS(=O)(=O)C(c2cnn(C)c2)C2CCCN(C)C2)c(C(C)C)s1 (centres undefined), the pIC50 [3] was over 7.00.

CC1(C)CCc2c1cc1c(c2NC(=O)NS(=O)(=O)c2ccnn2CCCB(O)O)CCC1 showed a pIC50 [4] of over 6.00.

For CC(C)c1cc(F)cc(C(C)C)c1NC(=O)N=[S+](N)([O-])c1ccc2ccccc2c1 (centres undefined), the pIC50 [5] was under 4.52.

For NS(=O)(=O)c1cccc(/C=C2\SC(=S)N(CC3CCCCC3)C2=O)c1, the pIC50 [6] was 6.05.

With CN1CCC[C@@H](Nc2nnc(-c3ccc(C(F)(F)F)cc3O)c3ncn(C)c23)C1 the pEC50 (THP-1 [7]) was over 7.70.

For COC(C)(C)Cn1ccc(S(=O)(=O)c2nnc(Nc3c4c(cc5c3CCC5)CCC4)[nH]2)n1, the pIC50 [8] was over 6.30.

For CC(C)c1nn(CC(=O)Nc2ccc3nncn3c2)c(=O)cc1Oc1ccccc1, the pEC50 [9] was under 4.82.

In the case of CN1CCC[C@@H](Nc2nnc(-c3ccc(C(F)(F)F)cc3O)c3c2ncn3C)C1, the pEC50 (THP-1 [7]) was over 7.70.

With C=C1C(=O)[C@@]23C(CC[C@@H]1[C@H]2OC(=O)/C=C/c1ccc(N2CCOCC2)cc1)[C@@]12CO[C@]3(O)[C@@H](O)[C@@H]1C(C)(C)CC[C@@H]2O (some centres undefined) the inhibition [10] was 2.94%.

Work on CC(C)c1cc(F)cc(C(C)C)c1NC(=O)N=[S+](N)([O-])c1ccccc1-c1ccccc1 (centres undefined) yielded a pIC50 [5] of under 4.52.

For CC(C)(O)c1ccc2c(c1)[S+]([O-])(NC(=O)Nc1c3c(cc4c1CCC4)CCC3)=NC2=O (centres undefined), the pIC50 [11] was over 6.00.

In the case of CN1CCC[C@@H](Nc2nnc(-c3ccc(C(F)(F)F)cc3O)c3c2nc(C2CC2)n3C)C1, the pEC50 (THP-1 [7]) was over 7.70.

CCOC(=O)C(Cn1cc(F)cn1)OC(=O)Nc1c2c(cc3c1CCC3)CCC2 (centres undefined) gave a pIC50 [12] of over 8.00.

With CCC(CC)CN1C(=O)/C(=C/c2ccccc2S(C)(=O)=O)SC1=S the pIC50 [6] was 5.85.

CC(C)OC(=O)C(Cc1ncccn1)OC(=O)N[C@@H](C)c1ccc(C(F)(F)F)cc1 (some centres undefined) showed a pIC50 [12] of over 6.00.

For CC(C)c1nn(CC(=O)Nc2ccc3nncn3n2)c(=O)cc1Nc1ccccc1, the pEC50 [9] was under 4.82.

With CC(C)OC(=O)c1nc(Nc2c3c(cc4c2CCC4)CCC3)cs1 the pIC50 [13] was over 6.00.

With O=S1(=O)c2nnc([nH]2)Nc2c(ccc3c2CCC3)-c2ccnc(c2)OCCCN2CCC3(CC1C3)C2 the pIC50 [14] was at least 7.00.

Cc1cc(Br)cc(C)c1-n1cc2c(=O)[nH]c(N3C=COCC3)nc2n1 gave a pIC50 [5] of 8.52.

Cc1cc2c(c(NC(=O)N[S+](=N)([O-])c3ccccc3)c1-c1ccnc(OC3CCN(C)CC3)c1)CCC2 (centres undefined) showed a pIC50 [5] of over 6.60.

Work on Cc1cc(Cl)cc(O)c1-c1ccc2oc(N[C@@H]3CCCN4CCC[C@@H]34)nc2n1 yielded a pIC50 (THP-1 [2]) of 7.56.

CCN1CCC(S(=O)(=O)NC(=O)Nc2c3c(cc4c2CCC4)CCC3)CC1 [SELNOFLAST] gave a pIC50 [15] of at least 6.00 and a bioavailability [16] of 76.7%.

Work on CN1CCC(Oc2cc(-c3ccc4c(c3NC(=O)NS(=O)(=O)C3CC3)CCC4)ccn2)CC1 yielded a pIC50 [15] of at least 6.60.

Molecule CC(C)c1nn(CC(=O)Nc2ccncn2)c(=O)c2cc(I)nn12 has a pIC50 [9] of over 7.92 and a pIC50 [17] of under 5.00.

C[C@@]1(O)CCCc2oc(S(=O)(=O)NC(=O)Nc3c4c(cc5c3CCC5)CCC4)cc21 gave a pIC50 [18] of over 7.00.

CCNc1cc2c(=O)n(CC(=O)Nc3ccc4nncn4c3)nc(C(C)C)n2n1 showed a pIC50 [9] of 7.62 and a pIC50 [17] of 5.15.

For COc1cc(-c2ccc3c(c2NC(=O)NS(=O)(=O)c2cn(C(C)C)c(=O)cn2)CCC3)ccn1, the pIC50 [19] was over 6.00.

CN1CCC[C@@H](Nc2nnc(-c3sccc3O)c3c2ncn3C)C1 gave a pEC50 (THP-1 [7]) of under 6.00.

For CC(C)c1nn(CC(=O)Nc2ccc3nncn3c2)c(=O)c2sc(C3CC3)nc12, the pIC50 [17] was 5.30.
